Experimental findings from the supplement of paper PMC6965134 are described below.

A short description of one series: TIMS collisional cross section (CCS, N2) of the lipid ion; higher = larger ion cross section. To be noted: sample type: HeLa; ionization mode: positive; one isomer drawn.
For the molecule `CCCCCCCCCCCCCC(=O)O[C@H](COC(=O)CCCCCCCCCCC)COP(=O)([O-])OCC[N+](C)(C)C` [PC 12:0@_14:0] (ion (formula + adduct): [C34H68NO8P+H] 1+), the “TIMS collisional cross section” value is 266.9 Å².
`CCCCCCCCCCCCCCC(=O)O[C@H](COC(=O)CCCCCCCCCCCCC)COP(=O)([O-])OCC[N+](C)(C)C` [PC 14:0@_15:0] (ion (formula + adduct): [C37H74NO8P+H] 1+): the “TIMS collisional cross section” value worked out at 276.1 Å².
On the same count and under the same terms, the same measure for `CCCCCCCCCCCCCCCC(=O)O[C@H](COC(=O)CCCCCCCCCCCCC)COP(=O)([O-])OCC[N+](C)(C)C` [PC 14:0@_16:0] (ion (formula + adduct): [C38H76NO8P+H] 1+): 279.2 Å²; for `CC/C=C\C/C=C\C/C=C\C/C=C\CCCCC(=O)O[C@H](COC(=O)CCCCCCCCCCCCC)COP(=O)([O-])OCC[N+](C)(C)C` [PC 14:0@_18:4] (ion (formula + adduct): [C40H72NO8P+H] 1+): 278.8 Å².
Same read-out and setting: with `CCCCCCCCCCCCCCC(=O)O[C@H](COC(=O)CCCCCCCCCCCCC)COP(=O)([O-])OCC[N+](C)(C)C` [PC 14:0_15:0] (ion (formula + adduct): [C37H74NO8P+H] 1+) the figure was 276.3 Å²; with `CCCCCCCCCCCCCCCC(=O)O[C@H](COC(=O)CCCCCCCCCCCCC)COP(=O)([O-])OCC[N+](C)(C)C` [PC 14:0_16:0] (ion (formula + adduct): [C38H76NO8P+H] 1+), 280.6 Å².
`CCCCCC/C=C\CCCCCCCC(=O)O[C@H](COC(=O)CCCCCCCCCCCCC)COP(=O)([O-])OCC[N+](C)(C)C` [PC 14:0_16:1@] (ion (formula + adduct): [C38H74NO8P+H] 1+): the “TIMS collisional cross section” value was determined as 276.5 Å².
The same measure, in the same setting: the same measure for `CCCCCC/C=C\CCCCCCCC(=O)O[C@H](COC(=O)CCCCCCCCCCCCC)COP(=O)([O-])OCC[N+](C)(C)C` [PC 14:0_16:1] (ion (formula + adduct): [C38H74NO8P+H] 1+): 275.8 Å²; for `CCC/C=C\C/C=C\CCCCCCCCCC(=O)O[C@H](COC(=O)CCCCCCCCCCCCC)COP(=O)([O-])OCC[N+](C)(C)C` [PC 14:0_18:2] (ion (formula + adduct): [C40H76NO8P+H] 1+): 279.2 Å²; for `CC/C=C\C/C=C\C/C=C\C/C=C\C/C=C\C/C=C\CCC(=O)O[C@H](COC(=O)CCCCCCCCCCCCC)COP(=O)([O-])OCC[N+](C)(C)C` [PC 14:0_22:6@] (ion (formula + adduct): [C44H76NO8P+H] 1+): 285.3 Å².
Same read-out and setting: the same measure for `CCCC/C=C\CCCCCCCC(=O)OC[C@H](COP(=O)([O-])OCC[N+](C)(C)C)OC(=O)CCCCCCC/C=C\CCCCCC` [PC 14:1@_16:1] (ion (formula + adduct): [C38H72NO8P+H] 1+): 272.4 Å².
With `CCCC/C=C\CCCCCCCC(=O)OC[C@H](COP(=O)([O-])OCC[N+](C)(C)C)OC(=O)CCCCCCCCCCCCCCCCC` [PC 14:1@_18:0] (ion (formula + adduct): [C40H78NO8P+H] 1+), the “TIMS collisional cross section” value was 282.3 Å².
Still for that read-out and setting: with `CCCCC/C=C\C/C=C\C/C=C\CCCCC(=O)O[C@H](COC(=O)CCCCCCCCCCCCCC)COP(=O)([O-])OCC[N+](C)(C)C` [PC 15:0@_18:3] (ion (formula + adduct): [C41H76NO8P+H] 1+) the figure was 279.7 Å².
Still for that read-out and setting: with `CC/C=C\C/C=C\C/C=C\C/C=C\C/C=C\CCCC(=O)O[C@H](COC(=O)CCCCCCCCCCCCCC)COP(=O)([O-])OCC[N+](C)(C)C` [PC 15:0@_20:5] (ion (formula + adduct): [C43H76NO8P+H] 1+) the figure was 282.3 Å².
Regarding `CCCCCCCCCCCCCCCC(=O)O[C@H](COC(=O)CCCCCCCCCCCCCC)COP(=O)([O-])OCC[N+](C)(C)C` [PC 15:0_16:0] (ion (formula + adduct): [C39H78NO8P+H] 1+), the “TIMS collisional cross section” value was 282.1 Å².
As for `CCCCCC/C=C\CCCCCCCC(=O)O[C@H](COC(=O)CCCCCCCCCCCCCC)COP(=O)([O-])OCC[N+](C)(C)C` [PC 15:0_16:1] (ion (formula + adduct): [C39H76NO8P+H] 1+), the “TIMS collisional cross section” value is recorded as 278.9 Å².
Turning to `CCCCC/C=C\CCCCCCCC(=O)OC[C@H](COP(=O)([O-])OCC[N+](C)(C)C)OC(=O)CCCCCCC/C=C\CCCCCC` [PC 15:1_16:1@] (ion (formula + adduct): [C39H74NO8P+H] 1+), the “TIMS collisional cross section” value is 272.8 Å².

The series is the same for the next values; noted with them: sample type: Liver; ionization mode: positive; one isomer drawn.
As for `CCCCCCCCCCCCCCCCCC(=O)O[C@H](COC(=O)CCCCCCC)COP(=O)([O-])OCC[N+](C)(C)C` [PC 8:0_18:0@] (ion (formula + adduct): [C34H68NO8P+H] 1+), the “TIMS collisional cross section” value was 265.4 Å².
Still for that read-out and setting: with `CC/C=C\C/C=C\C/C=C\CCCCCCCC(=O)O[C@H](COC(=O)CCCCCCCCCCCCC)COP(=O)([O-])OCC[N+](C)(C)C` [PC 14:0@_18:3] (ion (formula + adduct): [C40H74NO8P+H] 1+) the figure was 277.5 Å²; with `CCCCC/C=C\C/C=C\CCCCCCCC(=O)O[C@H](COC(=O)CCCCCCCCCCCCCC)COP(=O)([O-])OCC[N+](C)(C)C` [PC 15:0@_18:2] (ion (formula + adduct): [C41H78NO8P+H] 1+), 281 Å².
Still for that read-out and setting: the same measure for `CC/C=C\C/C=C\C/C=C\C/C=C\C/C=C\C/C=C\CCC(=O)O[C@H](COC(=O)CCCCCCCCCCCCCC)COP(=O)([O-])OCC[N+](C)(C)C` [PC 15:0_22:6] (ion (formula + adduct): [C45H78NO8P+H] 1+): 288 Å².

The series is the same for the next values; noted with them: sample type: plasma; ionization mode: positive; one isomer drawn.
For `CCCCC/C=C\C[C@H](O)/C=C/C=C\C/C=C\CCCC(=O)O[C@H](COC(=O)CCCCCCCCCCCCCCCCC)COP(=O)([O-])OCC[N+](C)(C)C` [Oxidized PC 18:0_20:4] (ion (formula + adduct): [C46H84NO9P+H] 1+), the “TIMS collisional cross section” value is reported as 296.7 Å².
Take `CCCCCCCCCCCCCCC(=O)O[C@H](COC(=O)CCCCCCCCCCC)COP(=O)([O-])OCC[N+](C)(C)C` [PC 12:0_15:0@] (ion (formula + adduct): [C35H70NO8P+H] 1+): the “TIMS collisional cross section” value turned out to be 269.3 Å².
`CCCCC/C=C\C/C=C\C/C=C\C/C=C\CCCC(=O)O[C@H](COC(=O)CCCCCCCCCCCCC)COP(=O)([O-])OCC[N+](C)(C)C` [PC 14:0@_20:4] (ion (formula + adduct): [C42H76NO8P+H] 1+): the “TIMS collisional cross section” value is reported as 282 Å².
The same measure, in the same setting: with `CC/C=C\C/C=C\C/C=C\C/C=C\C/C=C\C/C=C\CCC(=O)O[C@H](COC(=O)CCCCCCCCCCCCC)COP(=O)([O-])OCC[N+](C)(C)C` [PC 14:0@_22:6] (ion (formula + adduct): [C44H76NO8P+H] 1+) the figure was 284.8 Å²; with `CCC/C=C\C/C=C\CCCCCCCCCC(=O)O[C@H](COC(=O)CCCCCCCCCCCCC)COP(=O)([O-])OCC[N+](C)(C)C` [PC 14:0_18:2] (ion (formula + adduct): [C40H76NO8P+H] 1+), 278.7 Å²; with `CCCCC/C=C\C/C=C\CCCCCCCC(=O)O[C@H](COC(=O)CCCCCCCCCCCCCC)COP(=O)([O-])OCC[N+](C)(C)C` [PC 15:0@_18:2] (ion (formula + adduct): [C41H78NO8P+H] 1+), 280.9 Å².
The same measure, in the same setting: the same measure for `CC/C=C\C/C=C\C/C=C\C/C=C\C/C=C\C/C=C\CCC(=O)O[C@H](COC(=O)CCCCCCCCCCCCCC)COP(=O)([O-])OCC[N+](C)(C)C` [PC 15:0@_22:6] (ion (formula + adduct): [C45H78NO8P+H] 1+): 288.2 Å².
